In US8952024B2, “Herbicidal pyrimidone derivatives” (E I du Pont de Nemours and Company, priority 2009, dated 2015):

Legend:
Type in all cases: in vivo
[1] = tested on: wheat (Triticum aestivum); test: Test A pre-/postemergence plant response; conditions: for Wheat plant response rating: visual injury, 0 to 100 scale (0 no effect, 100 complete control), approx. ten days
Summary of the method: (§1)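 Each species was treated preemergence via directed soil spray and postemergence at the one- to two-leaf stage, with compounds formulated in a non-phytotoxic solvent plus surfactant. Visual injury relative to untreated controls was rated after about ten days on a 0–100 scale.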

[2] = tested on: morningglory (Ipomoea spp.); test: Test A pre-/postemergence plant response; conditions: for Morningglory plant response rating: visual injury, 0 to 100 scale (0 no effect, 100 complete control), approx. ten days
Summary of the method: as §1

[3] = tested on: velvetleaf (Abutilon theophrasti); test: Test A pre-/postemergence plant response; conditions: for Velvetleaf plant response rating: visual injury, 0 to 100 scale (0 no effect, 100 complete control), approx. ten days
Summary of the method: as §1

corn (Zea mays) = test: Test A pre-/postemergence plant response; conditions: for Corn plant response rating: visual injury, 0 to 100 scale (0 no effect, 100 complete control), approx. ten days
Summary of the method: as §1

[4] = tested on: giant foxtail (Setaria faberii); test: Test A pre-/postemergence plant response; conditions: for Foxtail, Giant plant response rating: visual injury, 0 to 100 scale (0 no effect, 100 complete control), approx. ten days
Summary of the method: as §1

[5] = tested on: large crabgrass (Digitaria sanguinalis); test: Test A pre-/postemergence plant response; conditions: for Crabgrass, Large plant response rating: visual injury, 0 to 100 scale (0 no effect, 100 complete control), approx. ten days
Summary of the method: as §1

[6] = tested on: pigweed (Amaranthus retroflexus); test: Test A pre-/postemergence plant response; conditions: for Pigweed plant response rating: visual injury, 0 to 100 scale (0 no effect, 100 complete control), approx. ten days
Summary of the method: as §1

[7] = tested on: barnyardgrass (Echinochloa crus-galli); test: Test A pre-/postemergence plant response; conditions: for Barnyardgrass plant response rating: visual injury, 0 to 100 scale (0 no effect, 100 complete control), approx. ten days
Summary of the method: as §1

[8] = tested on: winter barley (Hordeum vulgare); test: Test B postemergence plant response; conditions: for Plant response rating, Barley: Postemergence
From the text: At the same time, plants selected from these crop and weed species and also winter barley (Hordeum vulgare), canarygrass (Phalaris minor), chickweed (Stellaria media) and windgrass (Apera spica-venti) were planted in pots containing Redi-Earth® planting medium (Scotts Company, 14111 Scottslawn Road, Marysville, Ohio 43041) comprising spaghnum peat moss, vermiculite, wetting agent and starter nutrients and treated with postemergence applications of some of the test chemicals formulated in the same manner. Plants ranged in height from 2 to 18 cm (1- to 4-leaf stage) for postemergence treatments.
Treated plants and controls were maintained in a greenhouse for 13 to 15 days, after which time all treated plants were visually evaluated and compared to controls. Plant response ratings, summarized in Table B, are based on a scale of 0 to 100 where 0 is no effect and 100 is complete control. A dash (-) response means no test result.

[9] = Postemergence, 125 g ai/ha, 0 to 100 scale where 0 is no effect and 100 is complete control
[10] = Preemergence, 125 g ai/ha, 0 to 100 scale, 0 = no effect, 100 = complete control
[11] = Preemergence, 500 g ai/ha, 0 to 100 scale, 0 = no effect, 100 = complete control
[12] = 31 g ai/ha, 0 to 100 scale (0 no effect, 100 complete control)

| SMILES | Plant response rating, Wheat [1, 9] | Wheat plant response rating ([1]; Postemergence, 500 g ai/ha) | Plant response rating, Wheat [1, 10] | Plant response rating, Wheat [1, 11] | Plant response rating, Morningglory [2, 9] | Morningglory plant response rating ([2]; Postemergence, 500 g ai/ha) | Plant response rating, Morningglory [2, 10] | Plant response rating, Morningglory [2, 11] | Plant response rating, Velvetleaf [3, 9] | Velvetleaf plant response rating ([3]; Postemergence, 500 g ai/ha) | Plant response rating, Velvetleaf [3, 10] | Plant response rating, Velvetleaf [3, 11] | Plant response rating, Corn (corn (Zea mays); [9]) | Corn plant response rating (corn (Zea mays); Postemergence, 500 g ai/ha) | Plant response rating, Corn (corn (Zea mays); [10]) | Plant response rating, Corn (corn (Zea mays); [11]) | Plant response rating, Foxtail, Giant [4, 9] | Foxtail, Giant plant response rating ([4]; Postemergence, 500 g ai/ha) | Plant response rating, Foxtail, Giant [4, 10] | Plant response rating, Foxtail, Giant [4, 11] | other results |
| --- | --- | --- | --- | --- | --- | --- | --- | --- | --- | --- | --- | --- | --- | --- | --- | --- | --- | --- | --- | --- | --- |
| Cc1ccccc1-n1c(-c2cc(F)cc(F)c2)ncc(C(=O)C2=C(O)CCCC2=O)c1=O [Compound 159] | 10 | 60 | 0 | 20 | 100 | 100 | 0 | 50 | 100 | 100 | 70 | 100 | 0 | 70 | 0 | 40 | 90 | 100 | 60 | 90 | Plant response rating, Crabgrass, Large [5, 9]: 90; Crabgrass, Large plant response rating ([5]; Postemergence, 500 g ai/ha): 90; Plant response rating, Crabgrass, Large [5, 10]: 80; Plant response rating, Crabgrass, Large [5, 11]: 100; Plant response rating, Pigweed [6, 9]: 100; Pigweed plant response rating ([6]; Postemergence, 500 g ai/ha): 100; Plant response rating, Pigweed [6, 10]: 100; Plant response rating, Pigweed [6, 11]: 100; Plant response rating, Barnyardgrass [7, 9]: 90; Barnyardgrass plant response rating ([7]; Postemergence, 500 g ai/ha): 100; Plant response rating, Barnyardgrass [7, 10]: 30; Plant response rating, Barnyardgrass [7, 11]: 90; Plant response rating, Barley ([8]; 8 g ai/ha, 0 to 100 scale): 0; Plant response rating, Barley ([8]; 16 g ai/ha, 0 to 100 scale): 20; Barley plant response rating (0 to 100 scale) ([8]; 62 g ai/ha, postemergence, 0 is no effect, 100 is complete control, 13 to 15 days): 50; Plant response rating, Barley [8, 12]: 20 |
| CC1(C)CC(=O)C(C(=O)c2cnc(-c3ccccc3)n(-c3ccccc3)c2=O)=C(O)C1 [Compound 225] | 0 | 40 | 0 | 30 | 100 | 100 | 30 | 80 | 100 | 100 | 80 | 100 | 10 | 50 | 0 | 20 | 70 | 90 | 40 | 80 | Plant response rating, Crabgrass, Large [5, 9]: 90; Crabgrass, Large plant response rating ([5]; Postemergence, 500 g ai/ha): 100; Plant response rating, Crabgrass, Large [5, 10]: 60; Plant response rating, Crabgrass, Large [5, 11]: 100; Plant response rating, Pigweed [6, 9]: 100; Pigweed plant response rating ([6]; Postemergence, 500 g ai/ha): 100; Plant response rating, Pigweed [6, 10]: 90; Plant response rating, Pigweed [6, 11]: 100; Plant response rating, Barnyardgrass [7, 9]: 90; Barnyardgrass plant response rating ([7]; Postemergence, 500 g ai/ha): 100; Plant response rating, Barnyardgrass [7, 10]: 20; Plant response rating, Barnyardgrass [7, 11]: 90; Plant response rating, Barley ([8]; 16 g ai/ha, 0 to 100 scale): 5; Plant response rating, Barley [8, 12]: 20; Plant response rating, Barley ([8]; 62 g ai/ha, scale 0 to 100 (0 no effect, 100 complete control)): 35; Plant response rating, Barley ([8]; 125 g ai/ha, scale 0 to 100 (0 no effect, 100 complete control)): 40 |
